This experiment concerns the target Polθ theta (1-899) (hPolQ) (Homo sapiens (Human), UniProt O75417). The experiment is described as follows: Biological Assay 1: Polθ ATPase activity, NADH oxidation-coupled enzymatic assay (10 nM enzyme, 30 min). It is filed as biochemical. The settings on record: Polθ (1-899) 10 nM, 100 μM ATP, 300 nM dT50 ssDNA; Examples 1 to 268; read-out: ATPase NADH coupling:Standard Screening:hPolQ IC50. As to the method:
The ability of the compounds of Formula (I), (II), (III), (IV), or Table 1 (Examples 1 to Example 268) to inhibit ATPase activity of Polθ theta (1-899) was determined using the assay described below.
Polθ Theta ATPase activity was determined by measuring the rate of ATP turn over in a NADH oxidation-coupled enzymatic assay. 10-point dilution series of compounds were used in a 384 well format for the inhibition assays. Polθ theta (1-899) (10 nM) in assay buffer (20 mM Tris HCl (pH 7.80), 80 mM KCl, 10 mM MgCl2, 1 mM DTT, 0.01% BSA, 0.01% Tween, 5% glycerol) was transferred to the test wells (20 μL), except the low control wells (20 μL of assay buffer was added to the low control wells). The plate was then incubated at room temperature for 15 min. An equal volume (20 μL) of 100 μM ATP, 300 nM dT50 (single-stranded DNA (ssDNA) containing 50 thymine bases), 300 μM NADH, 6 mM PEP, 10 U/mL lactate dehydrogenase and U/mL pyruvate kinase in assay buffer was added to all the test wells. The plate was then centrifuged at 1000 rpm for 1 min. The reaction was monitored for 30 min by measuring absorbance (λ=340 nm) in a Tecan Spark multimode plate reader every minute. The high control (DMSO with enzyme) with low absorbance intensity represents no inhibition of ATPase reaction while the low control (DMSO with buffer) with high absorbance intensity represents full inhibition of ATPase activity. Slope of the reaction progress curves were used to calculate the rate of ATP hydrolysis. The rates were used to determine the percent inhibition using a four-parameter inhibition model to generate IC50, Hill slope and max inhibition.

Sequence of Polθ theta (1-899) (hPolQ) (O75417 1-899): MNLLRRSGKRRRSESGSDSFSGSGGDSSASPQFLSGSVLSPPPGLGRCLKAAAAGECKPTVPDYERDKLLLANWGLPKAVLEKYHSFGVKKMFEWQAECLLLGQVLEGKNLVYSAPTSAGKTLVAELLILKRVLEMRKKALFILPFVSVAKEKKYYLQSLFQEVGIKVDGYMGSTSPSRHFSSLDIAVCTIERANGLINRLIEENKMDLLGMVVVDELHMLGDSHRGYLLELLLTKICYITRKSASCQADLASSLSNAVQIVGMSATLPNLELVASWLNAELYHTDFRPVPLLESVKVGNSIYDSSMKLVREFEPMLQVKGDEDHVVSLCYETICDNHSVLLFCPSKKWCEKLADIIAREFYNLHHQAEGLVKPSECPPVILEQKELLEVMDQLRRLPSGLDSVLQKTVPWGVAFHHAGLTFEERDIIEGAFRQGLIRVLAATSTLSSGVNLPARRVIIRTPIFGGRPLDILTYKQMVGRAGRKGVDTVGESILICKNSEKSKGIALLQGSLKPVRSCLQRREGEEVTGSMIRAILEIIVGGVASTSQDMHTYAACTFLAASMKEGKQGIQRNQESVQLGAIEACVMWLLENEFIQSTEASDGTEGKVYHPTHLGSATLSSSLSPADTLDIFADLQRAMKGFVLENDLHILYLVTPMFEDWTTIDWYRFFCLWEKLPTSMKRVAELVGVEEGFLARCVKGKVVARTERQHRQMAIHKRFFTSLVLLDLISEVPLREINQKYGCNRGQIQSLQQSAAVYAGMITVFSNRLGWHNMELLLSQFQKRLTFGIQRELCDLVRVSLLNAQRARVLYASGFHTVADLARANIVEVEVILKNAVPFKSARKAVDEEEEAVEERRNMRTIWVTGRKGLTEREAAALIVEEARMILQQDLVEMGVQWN

In the case of `COc1cccc(COc2nnc(NC(=O)c3cnc(C)cc3-c3c(F)cccc3OC)s2)n1` [Example 91, 4-(2-fluoro-6-methoxyphenyl)-N-(5-((6-methoxypyridin-2-yl)methoxy)-1,3,4-thiadiazol-2-yl)-6-methylpyridine-3-carboxamide], the IC50 (commonly the concentration needed to halve the response being measured) was at most 0.2 µM.
Regarding `COc1cccc(F)c1-c1cncnc1C(=O)Nc1nnc(OCc2ccc(CO)cn2)s1` [Example 37, 5-(2-fluoro-6-methoxyphenyl)-N-(5-((5-(hydroxymethyl)pyridin-2-yl)methoxy)-1,3,4-thiadiazol-2-yl)pyrimidine-4-carboxamide], the half-maximal inhibitory concentration (IC50) was at most 0.2 µM.
In the case of `COc1cnc(Cl)cc1-c1cc(C)ncc1C(=O)Nc1nnc(OCC23COC(C2)C3)s1` [Example 229, N-(5-((2-oxabicyclo(2.1.1)hexan-4-yl)methoxy)-1,3,4-thiadiazol-2-yl)-2′-chloro-5′-methoxy-6-methyl-(4,4′-bipyridine)-3-carboxamide], the IC50 was at most 0.2 µM.
To `COc1cccc(F)c1-c1cc(C)ncc1C(=O)Nc1nnc(OCc2ccc(C(C)(C)C#N)cn2)s1` [Example 88, N-(5-((5-(2-cyanopropan-2-yl)pyridin-2-yl)methoxy)-1,3,4-thiadiazol-2-yl)-4-(2-fluoro-6-methoxyphenyl)-6-methylnicotinamide] belongs at most 0.2 µM; to `COc1cccc(F)c1-c1cc(C)ncc1C(=O)Nc1nnc(OCc2ccc(OC(F)F)cn2)s1` [Example 49, N-(5-((5-(difluoromethoxy)pyridin-2-yl)methoxy)-1,3,4-thiadiazol-2-yl)-4-(2-fluoro-6-methoxyphenyl)-6-methylnicotinamide], at most 0.2 µM; to `COc1c(F)cccc1-c1cc(C)ncc1C(=O)Nc1nnc(OCc2ccc(Cl)cn2)s1` [Example 16, N-(5-((5-chloropyridin-2-yl)methoxy)-1,3,4-thiadiazol-2-yl)-4-(3-fluoro-2-methoxyphenyl)-6-methylnicotinamide], at most 0.2 µM.
`COc1cccc(F)c1-c1cc(C)ncc1C(=O)Nc1nnc(OCc2ccc(CO)cn2)s1` [Example 14, 4-(2-fluoro-6-methoxyphenyl)-N-(5-((5-(hydroxymethyl)pyridin-2-yl)methoxy)-1,3,4-thiadiazol-2-yl)-6-methylpyridine-3-carboxamide]: the IC50 was at most 0.2 µM.
To `COc1cnc(Cl)cc1-c1cc(C)ncc1C(=O)Nc1nnc(OCc2ccc(OC(F)F)cn2)s1` [Example 113, 2′-chloro-N-(5-((5-(difluoromethoxy)pyridin-2-yl)methoxy)-1,3,4-thiadiazol-2-yl)-5′-methoxy-6-methyl-(4,4′-bipyridine)-3-carboxamide] belongs at most 0.2 µM.
To `COc1ccccc1-c1cc(C)ncc1C(=O)Nc1nnc(OCc2ncccc2CO)s1` [Example 62, N-(5-((3-(hydroxymethyl)pyridin-2-yl)methoxy)-1,3,4-thiadiazol-2-yl)-4-(2-methoxyphenyl)-6-methylpyridine-3-carboxamide] belongs 0.2 to 0.5 µM.
With `COCc1cc(-c2cc(Cl)ncc2OC)c(C(=O)Nc2nnc(OC[C@@H]3COCCO3)s2)cn1` [Example 216, (S)—N-(5-((1,4-dioxan-2-yl)methoxy)-1,3,4-thiadiazol-2-yl)-2′-chloro-5′-methoxy-6-(methoxymethyl)-(4,4′-bipyridine)-3-carboxamide] the figure was at most 0.2 µM; with `COc1cccc(F)c1-c1cc(C)ncc1C(=O)Nc1nnc(OCc2ccc(C3(O)CC3)cn2)s1` [Example 48, 4-(2-fluoro-6-methoxyphenyl)-N-(5-((5-(1-hydroxycyclopropyl)pyridin-2-yl)methoxy)-1,3,4-thiadiazol-2-yl)-6-methylnicotinamide], at most 0.2 µM.
Take `COc1cnc(C)cc1-c1cc(C)ncc1C(=O)Nc1nnc(OCc2ccc(OC(C)C)cn2)s1` [Example 74, N-(5-((5-isopropoxypyridin-2-yl)methoxy)-1,3,4-thiadiazol-2-yl)-5′-methoxy-2′,6-dimethyl-(4,4′-bipyridine)-3-carboxamide]: the IC50 is at most 0.2 µM.
Consider `COc1cnc(Br)cc1-c1cc(C)ncc1C(=O)Nc1nnc(OC[C@H]2COCCO2)s1` [Example 236, (R)—N-(5-((1,4-dioxan-2-yl)methoxy)-1,3,4-thiadiazol-2-yl)-2′-bromo-5′-methoxy-6-methyl-(4,4′-bipyridine)-3-carboxamide], for which the IC50 is at most 0.2 µM.
With `COc1cnc(Cl)cc1-c1cc(C)ncc1C(=O)Nc1nnc(OCC23CC(O)(C2)C3)s1` [Example 99, 2′-chloro-N-(5-((3-hydroxybicyclo(1.1.1)pentan-1-yl)methoxy)-1,3,4-thiadiazol-2-yl)-5′-methoxy-6-methyl-(4,4′-bipyridine)-3-carboxamide] the figure was at most 0.2 µM; with `COc1cnc(Cl)cc1-c1cc(C)ncc1C(=O)Nc1nnc(OC[C@H]2CCO[C@H]2C)s1` (single isomer, unassigned) [Example 181], at most 0.2 µM.
To `COc1cccc(F)c1-c1cccnc1C(=O)Nc1nnc(OCc2ccc(Cl)cn2)s1` [Example 19, N-(5-((5-chloropyridin-2-yl)methoxy)-1,3,4-thiadiazol-2-yl)-3-(2-fluoro-6-methoxyphenyl)picolinamide] belongs 1 to 10 µM; to `CN=[S@@](C)(=O)c1ccc(COc2nnc(NC(=O)c3cnc(C)cc3-c3cc(Cl)ccc3OC)s2)nc1` [Example 152, (S)-4-(5-chloro-2-methoxyphenyl)-N-(5-((5-(N,S-dimethylsulfonimidoyl)pyridin-2-yl)methoxy)-1,3,4-thiadiazol-2-yl)-6-methylnicotinamide], at most 0.2 µM.
To `COc1cnc(Cl)cc1-c1cc(C)ncc1C(=O)Nc1nnc(OCC2COC(C)(C)C2)s1` (stereo in doubt) [Example 188, (R)-2′-chloro-N-(5-((5,5-dimethyltetrahydrofuran-3-yl)methoxy)-1,3,4-thiadiazol-2-yl)-5′-methoxy-6-methyl-(4,4′-bipyridine)-3-carboxamide] belongs at most 0.2 µM; to `COc1ccccc1-c1cc(C)ncc1C(=O)Nc1nnc(OC[C@@H](O)c2ccc(Cl)cn2)s1` [Example 28, (S)—N-(5-(2-(5-chloropyridin-2-yl)-2-hydroxyethoxy)-1,3,4-thiadiazol-2-yl)-4-(2-methoxyphenyl)-6-methylnicotinamide], 0.5 to 1 µM.
On to `CCc1cc(-c2cc(C)ncc2C(=O)Nc2nnc(OCc3ccc(C(C)(C)O)cn3)s2)c(OC)cn1` [Example 106, 2′-ethyl-N-(5-((5-(2-hydroxypropan-2-yl)pyridin-2-yl)methoxy)-1,3,4-thiadiazol-2-yl)-5′-methoxy-6-methyl-[4,4′-bipyridine]-3-carboxamide], for which the IC50 is at most 0.2 µM.
Regarding `COc1ccc(COc2nnc(NC(=O)c3cnc(C)cc3-c3c(F)cccc3OC(F)F)s2)nc1` [Example 46, 4-(2-(difluoromethoxy)-6-fluorophenyl)-N-(5-((5-methoxypyridin-2-yl)methoxy)-1,3,4-thiadiazol-2-yl)-6-methylnicotinamide], the IC50 is at most 0.2 µM.
On to `COc1cccc(F)c1-c1cc2nc[nH]c2cc1C(=O)Nc1nnc(OC[C@H]2CC[C@H](O)CC2)s1` [Example 199, 5-(2-fluoro-6-methoxyphenyl)-N-(5-(((1r,4r)-4-hydroxycyclohexyl)methoxy)-1,3,4-thiadiazol-2-yl)-1H-benzo(d)imidazole-6-carboxamide], for which the IC50 is 1 to 10 µM.

The values are drawn from patent US20250325552A1, “SUBSTITUTED THIADIAZOLYL DERIVATIVES AS DNA POLYMERASE THETA INHIBITORS” (IDEAYA Biosciences, Inc., priority 2020, published 2025).
